Laboratory results reported in US10004748B2, “Methods of treating PR-positive, luminal A breast cancer with PI3K inhibitor, pictilisib” (Genentech, Inc., priority 2014, dated 2018).
Where “and” joins values, the source holds several entries; their conditions need not be identical. Equal entries are not always repeated. Where two headings read alike, the source gives them in different places.

Experiments:
[1] = for Discontinued GDC-0941/placebo: Non-PD, patients (%): events unrelated to disease progression, all arms on fulvestrant
[2] = test system: advanced or metastatic ER+ breast cancer (MBC); conditions: for Median PFS / Events (PFS): all arms on fulvestrant; for HR (PFS): GDC-0941 vs placebo, both on fulvestrant
[3] = test system: cytochrome P450 enzymes, including CYP2C8 and CYP3A4/5; test: In vitro metabolism studies; assay type: in vitro ADME; conditions: preliminary results
[4] = 340 mg dose in combination with fulvestrant
[5] = All luminal A/B typed patients (N 74/72)
[6] = PIK3CA Mutation Status Positive
[7] = PIK3CA Mutation Status Wild Type
[8] = PR+ subgroup of PAM50-typed patients (N 50/52)

CS(=O)(=O)N1CCN(Cc2cc3nc(-c4cccc5[nH]ncc45)nc(N4CCOCC4)c3s2)CC1 [GDC-0941, 4-(2-(1H-indazol-4-yl)-6-((4-(methylsulfonyl)piperazin-1-yl)methyl)thieno[3,2-d]pyrimidin-4-yl)morpholine]
Patients who experienced a dose modification for an adverse event [1, 4]: 66%
Rate of discontinuation for non-PD events [1, 4]: 31%
Tolerability [1, 4]: acceptable tolerability profile
Discontinued GDC-0941/placebo: Non-PD, patients (%) [1]: 28 (31%)
Urinary tract infection, All Grades, patients (%) ([1]; human, in vivo): 9 (10%)
AST increased, All Grades, patients (%) ([1]; n = 89, with fulvestrant): 11 (12%)
AST increased, Grade ≥3, patients (%) ([1]; n = 89, with fulvestrant): 3 (3%)
Abdominal pain, All Grades, patients (%) ([1]; n = 89, with fulvestrant): 9 (10%)
Abdominal pain, Grade ≥3, patients (%) ([1]; n = 89, with fulvestrant): 2 (2%)
Alopecia, All Grades, patients (%) ([1]; n = 89, with fulvestrant): 10 (11%)
Arthralgia, All Grades, patients (%) ([1]; n = 89, with fulvestrant): 11 (12%)
Constipation, All Grades, patients (%) ([1]; n = 89, with fulvestrant): 14 (16%)
Cough, All Grades, patients (%) ([1]; n = 89, with fulvestrant): 14 (15%)
Decreased appetite, All Grades, patients (%) ([1]; n = 89, with fulvestrant): 20 (23%)
Decreased appetite, Grade ≥3, patients (%) ([1]; n = 89, with fulvestrant): 1 (1%)
Diarrhea, All Grades, patients (%) ([1]; n = 89, with fulvestrant): 58 (65%)
Diarrhea, Grade ≥3, patients (%) ([1]; n = 89, with fulvestrant): 5 (6%)
Discontinued GDC-0941/placebo: Adverse Events, patients (%) ([1]; n = 89, with fulvestrant): 16 (18%)
Discontinued fulvestrant for non-PD, patients (%) ([1]; n = 89, with fulvestrant): 15 (17%)
Dry skin, All Grades, patients (%) ([1]; n = 89, with fulvestrant): 9 (10%)
Dysgeusia, All Grades, patients (%) ([1]; n = 89, with fulvestrant): 35 (39%)
Dyspepsia, All Grades, patients (%) ([1]; n = 89, with fulvestrant): 10 (11%)
Dyspneoa, All Grades, patients (%) ([1]; n = 89, with fulvestrant): 10 (11%)
Fatigue, All Grades, patients (%) ([1]; n = 89, with fulvestrant): 36 (40%)
Fatigue, Grade ≥3, patients (%) ([1]; n = 89, with fulvestrant): 5 (6%)
Headache, All Grades, patients (%) ([1]; n = 89, with fulvestrant): 12 (14%)
Headache, Grade ≥3, patients (%) ([1]; n = 89, with fulvestrant): 1 (1%)
Hot flush, All Grades, patients (%) ([1]; n = 89, with fulvestrant): 12 (13%)
Hyperglycemia, All Grades, patients (%) ([1]; n = 89, with fulvestrant): 16 (18%)
Hyperglycemia, Grade ≥3, patients (%) ([1]; n = 89, with fulvestrant): 4 (5%)
Injection site pain, All Grades, patients (%) ([1]; n = 89, with fulvestrant): 10 (11%)
Mucosal inflammation, All Grades, patients (%) ([1]; n = 89, with fulvestrant): 9 (10%)
Muscle spasms, All Grades, patients (%) ([1]; n = 89, with fulvestrant): 10 (11%)
Nausea, All Grades, patients (%) ([1]; n = 89, with fulvestrant): 48 (54%)
Nausea, Grade ≥3, patients (%) ([1]; n = 89, with fulvestrant): 2 (2%)
Pruritus, All Grades, patients (%) ([1]; n = 89, with fulvestrant): 11 (12%)
Pruritus, Grade ≥3, patients (%) ([1]; n = 89, with fulvestrant): 1 (1%)
Pyrexia, All Grades, patients (%) ([1]; n = 89, with fulvestrant): 12 (13%)
Stomatitis, All Grades, patients (%) ([1]; n = 89, with fulvestrant): 16 (18%)
Stomatitis, Grade ≥3, patients (%) ([1]; n = 89, with fulvestrant): 2 (2%)
Vomiting, All Grades, patients (%) ([1]; n = 89, with fulvestrant): 24 (27%)
Vomiting, Grade ≥3, patients (%) ([1]; n = 89, with fulvestrant): 2 (2%)
Median PFS ([2]; All Patients (ITT)): 6.2 Months
HR (PFS) [2, 5]: 0.81
Events (PFS) [2, 5]: 33/39
Median PFS [2, 5]: 6.18/5.09 months
Median PFS ([2]; Baseline ECOG Score 0): 6.6 Months
Median PFS ([2]; Baseline ECOG Score 1): 5.0 Months
Median PFS ([2]; Bone Only Non-Measureable Disease at Baseline No): 5.0 Months
Events (PFS) ([2]; LumA (N 46/52)): 15/27
Events (PFS) ([2]; LumB (N 28/20)): 18/12
Median PFS ([2]; LumB (N 28/20)): 3.7 months and 3.71/3.55 months
HR (PFS) ([2]; LumB): 1.05
Median PFS ([2]; Measurable Disease at Baseline (Derived) Yes): 5.0 Months
Median PFS ([2]; Num of Previous Therapies in Metastatic Setting 0): 6.6 Months
Median PFS ([2]; Num of Previous Therapies in Metastatic Setting 1): 6.2 Months
Median PFS ([2]; Num of Previous Therapies in Metastatic Setting 3+): 3.6 Months
Median PFS ([2]; PIK3CA Helical Domain Mutation Status Positive): 7.3 Months
Median PFS ([2]; PIK3CA Helical Domain Mutation Status Wild Type): 6.2 Months
Median PFS ([2]; PIK3CA Kinase Domain Mutation Status Positive): 6.2 Months
Median PFS ([2]; PIK3CA Kinase Domain Mutation Status Wild Type): 6.6 Months
Median PFS [2, 6]: 6.2 Months
Median PFS [2, 7]: 5.8 Months
Median PFS ([2]; PR Status Negative): 5 Months
Median PFS ([2]; PR Status Negative, listed as GDC0941): 5.0 Months
Median PFS ([2]; PR Status Positive (n=116)): 7.2 Months
Median PFS ([2]; PR Status Unknown): 2.9 Months
HR (PFS) [2, 8]: 0.47
Events (PFS) [2, 8]: 19/32
Median PFS [2, 8]: 7.16/3.68 months
Events (PFS) ([2]; PR+, LumA (N 34/39)): 9/25
HR (PFS) ([2]; PR+, LumA (n=73)): 0.31
Events (PFS) ([2]; PR+, LumB (N 16/13)): 10/7
Median PFS ([2]; PR+, LumB (N 16/13)): 3.91/3.32 months
HR (PFS) ([2]; PR+, LumB): 0.92
Events (PFS) ([2]; PR−, LumA (N 9/7)): 3/2
HR (PFS) ([2]; PR−, LumA): 1.75
Median PFS ([2]; Primary Resistance (Derived)): 5.0 Months
Median PFS ([2]; Primary/Secondary Resistance Unknown): 1.7 Months
Median PFS ([2]; Received Prior Adjuvant/Neo-Adjuvant Therapy No): 4.1 Months
Median PFS ([2]; Received Prior Adjuvant/Neo-Adjuvant Therapy Yes): 7.2 Months
Median PFS ([2]; Visceral Disease No): 8.2 Months
Median PFS ([2]; Visceral Disease Yes): 4.1 Months
Overall improvement of median PFS vs placebo group ([2]; patients positive for both the estrogen and progesterone receptor): over 15 weeks
in vitro metabolism [3]: partially metabolized by multiple Phase I cytochrome P450 enzymes, including CYP2C8 and CYP3A4/5

C[C@]12CC[C@@H]3c4ccc(O)cc4C[C@@H](CCCCCCCCC[S+]([O-])CCCC(F)(F)C(F)(F)F)[C@H]3[C@@H]1CC[C@@H]2O (stereo partly drawn) [fulvestrant, (7α,17β)-7-{9-[(4,4,5,5,5-pentafluoropentyl)sulfinyl]nonyl}estra-1,3,5(10)-triene-3,17-diol, reference compound]
Discontinued GDC-0941/placebo: Non-PD, patients (%) [1]: 10 (13%)
Median PFS ([2]; All Patients (ITT)): 3.8 Months
Median PFS ([2]; Luminal A subgroup (n=98)): 5.26 months
Median PFS [2, 6]: 5.1 Months
Median PFS [2, 7]: 3.6 Months
Median PFS ([2]; PR Status Positive (n=116)): 3.7 Months
Median PFS ([2]; PR-positive and Luminal A (n=73)): 5.7 months
Response rate on the basis of local assessment ([2]; all patients): 5%
Response rate ([2]; patients with PIK3CA-mutant tumors): 3%
Response rate ([2]; patients without a detectable PIK3CA-mutant tumor): 5%
